Where “and” joins values, the source holds several entries; their conditions need not be identical. Equal entries are not always repeated. Where two headings read alike, the source gives them in different places.
Tests used:
rat GLP-1 receptor = molecular target: T1, rat GLP-1 receptor (Rattus norvegicus, UniProt P32301); assay: cAMP potency assay in CHO cells transfected with the rat GLP-1 receptor (CHO-GLP-1R); format: cell-based
T1 construct: expressed in transfected cells; host or cells: CHO (CHO-GLP-1R)
T1 sequence (P32301 22-463): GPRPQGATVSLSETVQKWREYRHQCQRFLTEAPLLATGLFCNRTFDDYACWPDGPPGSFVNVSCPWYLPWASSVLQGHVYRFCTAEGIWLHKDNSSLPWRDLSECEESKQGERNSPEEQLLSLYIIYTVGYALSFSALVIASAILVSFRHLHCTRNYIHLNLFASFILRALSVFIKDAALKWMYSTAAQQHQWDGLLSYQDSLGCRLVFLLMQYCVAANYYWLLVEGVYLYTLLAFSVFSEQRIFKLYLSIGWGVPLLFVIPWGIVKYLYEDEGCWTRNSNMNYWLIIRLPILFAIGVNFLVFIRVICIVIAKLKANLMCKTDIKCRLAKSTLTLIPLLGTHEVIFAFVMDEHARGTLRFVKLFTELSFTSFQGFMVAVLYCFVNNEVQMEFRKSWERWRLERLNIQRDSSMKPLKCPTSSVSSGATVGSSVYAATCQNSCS
Description: 96-well tissue culture plates were seeded with CHO-GLP-1R cells and cultured overnight. The following day, the cells were rinsed with Krebs-Ringer buffer (KRB) and incubated in KRB containing the phosphodiesterase inhibitor 3-isobutyl-1-methylxanthine (IBMX, 2 mM) to inhibit intracellular enzymes that process cAMP. Serial dilutions of test compounds and controls were prepared in KRB/IBMX and triplicate wells of cells were inoculated with samples and controls. After incubation, individual sample lysates were then assayed to measure the increase in intracellular cAMP levels using a competition-based fluorescent immunoassay (CatchPoint® cAMP Fluorescent Assay Kit, Molecular Devices Corp., Sunnyvale, Calif.).

human GLP-1 receptor = molecular target: T2, human GLP-1 receptor (Homo sapiens, UniProt P43220); assay: cell-based cAMP assay in CHO cells expressing the human GLP-1 receptor (FIG. 4)
T2 construct: expressed in transfected cells; host or cells: CHO
T2 sequence (P43220 24-463): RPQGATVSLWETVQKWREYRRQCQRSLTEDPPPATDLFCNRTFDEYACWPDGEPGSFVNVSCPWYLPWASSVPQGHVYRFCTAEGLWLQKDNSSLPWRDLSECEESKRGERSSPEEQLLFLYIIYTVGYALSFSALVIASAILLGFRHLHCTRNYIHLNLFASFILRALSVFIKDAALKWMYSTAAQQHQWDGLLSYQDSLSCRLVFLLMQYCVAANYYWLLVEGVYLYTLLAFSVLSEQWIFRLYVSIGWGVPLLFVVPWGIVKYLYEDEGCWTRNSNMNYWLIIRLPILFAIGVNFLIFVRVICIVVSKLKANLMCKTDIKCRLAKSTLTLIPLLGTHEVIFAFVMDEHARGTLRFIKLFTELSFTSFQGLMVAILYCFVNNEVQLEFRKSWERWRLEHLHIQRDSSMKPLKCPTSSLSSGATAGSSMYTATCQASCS

[1] = molecular target: T3, matrix metalloprotease I (MMP-1, collagenase) (Homo sapiens, UniProt P03956); format: in vitro ADME
T3 sequence (P03956 100-469): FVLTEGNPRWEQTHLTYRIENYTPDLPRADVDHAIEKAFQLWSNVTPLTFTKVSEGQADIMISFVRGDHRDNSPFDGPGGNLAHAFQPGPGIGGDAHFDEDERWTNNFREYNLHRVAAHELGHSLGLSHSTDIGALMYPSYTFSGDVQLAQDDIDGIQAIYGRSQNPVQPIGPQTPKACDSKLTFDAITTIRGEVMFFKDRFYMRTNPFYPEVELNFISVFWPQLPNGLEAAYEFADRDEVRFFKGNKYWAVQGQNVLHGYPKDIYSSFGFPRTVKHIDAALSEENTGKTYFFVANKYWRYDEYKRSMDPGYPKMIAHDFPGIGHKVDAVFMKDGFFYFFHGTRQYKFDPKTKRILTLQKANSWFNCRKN
Description: This difference in degradation occurs despite the close similarity in amino acid sequence in the active portion of the molecules.

Diabetic (db/db) mice = assay: blood glucose in diabetic (db/db) mice after subcutaneous injection; format: in vivo
Sprague Dawley rats = assay: rat body weight, daily subcutaneous injections; format: in vivo
Description: The rats were weighed everyday (prior to dosing on dosing days). Animals had full access to food and water at all times.
By day five, the animals treated with 100 nmole/kg doses lost an average of 75 grams (17%) body weight compared to controls, and the weight loss is related to a drop in food and water intake. Because of the dramatic and acute weight loss observed, daily administration of the drug was stopped at day five. After the 5 day administration period, all animals gained weight at a similar rate.

mice = assay: body weight in mice after a single dose; format: in vivo; settings: for average drop in body weight: twenty-four hours after administration
Description: Such a dose can also be administered once per two weeks or once per month.

[2] = cynomolgus monkey, in vivo, 1 mg/kg
[3] = effect of aerosolization on integrity and activity of the fusion protein; format: physicochemical
Description: (§1) Aerosols were generated with an Aerotech II compressed air jet nebulizer (CIS-US Inc., Bedford, Mass.) and directed through a 1.58 cm diameter stainless steel aerosol delivery line into a 24-port flow past rodent exposure system (IN-TOX, ABQ, NM). The exhaust flow rate out of the chamber was ˜11.5 L/min. The nebulizer pressure was maintained at ˜30 psi.

diabetic mice (db/db) = assay: blood glucose in db/db mice after inhalation of aerosolized fusion protein; format: in vivo; settings: inhalation exposure equivalent to 0.3, 1 and 3 mg/kg
Description: as §1

[4] = mouse, in vivo, inhaled or intranasal
Description: The inhalation time in the chamber was chosen so that the animals would receive an exposure equivalent to the 0.3, 1 and 3 mg/kg dose administered subcutaneously. As a control, these doses were administered subcutaneously (SC) to compare in vivo activity to the inhaled route of administration.

Substance: exendin-4(1-39) (PEAPTD)2 (SEQ ID NO: 5) mTf fusion protein: exendin-4(1-39) (SEQ ID NO: 4) linked via linker (PEAPTD)2 to modified transferrin mTf (SEQ ID NO: 17); sequence SEQ ID NO: 23
- EC50 (rat GLP-1 receptor; cAMP accumulation in CHO-GLP-1R cells): 0.16 nM
- potency relative to the GLP-1(7-37,A8G,K34A) (PEAPTD)2 mTf fusion protein (rat GLP-1 receptor; in vitro activation of the GLP-1 receptor): four-eight fold more potent
- EC50 (human GLP-1 receptor; cell-based cAMP assay, FIG. 4): 0.0313 nM
- potency relative to exendin-4 (fold less potent) (human GLP-1 receptor; in vitro, CHO cells expressing the human GLP-1 receptor): approximately 5 fold
- resistance to inactivation by MMP-1 [1]: resistant to inactivation by MMP-1
- time the almost normalized glucose level persisted (Diabetic (db/db) mice; all treatment groups): 24 h
- dose that significantly reduced blood glucose (Diabetic (db/db) mice; by 3 hours after subcutaneous injection): ≤ 1.3 nmol/kg
- effect on blood glucose compared with equivalent doses of the GLP-1(7-37,A8G,K34A) (PEAPTD)2 mTf fusion protein (Diabetic (db/db) mice; equivalent doses): significantly greater and of a longer duration
- time at which glucose concentrations returned to pretreatment levels (Diabetic (db/db) mice; post-treatment, depending on the dose): 48 to 72 h
- reduction in blood glucose (Diabetic (db/db) mice; reduction seen in db/db mice): approximately 70%
- body weight loss (Sprague Dawley rats; 100 nmole/kg daily administration, rats): 17% and 16%
- average body weight loss compared to controls (Sprague Dawley rats; 100 nmole/kg daily, by day five): 75 grams
- body weight change (Sprague Dawley rats; 10 and 100 nmole/kg doses): lost weight after the first injection
- body weight versus control animals after end of dosing (Sprague Dawley rats; 20 days following the last administration): still weighed less than the control animals
- dose correlated with a reduction in animal body weight (mice; mice and rats): ≥ 10 nmol/kg
- average drop in body weight (mice; single dose 10 nmole/kg): 6%
- average drop in body weight (mice; single dose 100 nmole/kg): 14%
- Vz ([2]; iv): 0.0659 ± 0.031 L/kg
- λ z ([2]; iv): 0.0313 ± 0.0137 h − 1
- F ([2]; sc): 49.0%
- λ z ([2]; sc): 0.0252 ± 0.0084 h − 1
- effect of aerosolization on structure ([3]; 10 mg/mL in 10 mM histidine pH 7.4, 100 mM NaCl, nebulized, SDS-PAGE and SEC-HPLC): no detectable adverse effect on the structure
- biological activity of material recovered after aerosolization ([3]; condensed liquid from the aerosol): biologically active
- blood glucose levels after inhalation (diabetic mice (db/db)): significant drop
- bioavailability [4]: approximately 10%

Reference: patent publication US8158579B2, “Fusion protein of an exendin to modified transferrin” (BioRexis Pharmaceutical Corporation, priority 2006, dated 2012)
